Patent US20140135270A1, “MACROCYCLIC COMPOUNDS FOR INHIBITION OF INHIBITORS OF APOPTOSIS” (Ensemble Therapeutics Corp., priority 2012, published 2014)

Columns and labels:
His-BIR3 (241-356, XIAP) = target: T1, His-BIR3 (241-356, XIAP) (Homo sapiens, UniProt P98170); test: XIAP-BIR3/SMAC Homogeneous Time Resolved Fluorescence (HTRF) Assay; type: binding; conditions: fluorescein labeled SMAC peptide
T1 construct: additions of His-BIR3 (241-356, XIAP), fluorescein labeled SMAC peptide

[1] = target: T2, His-BIR2-3 (125-356, C202A/C213G, XIAP) (Homo sapiens, UniProt P98170, C202A/C213G); test: XIAP-BIR2-3 Dimeric SMAC Peptide Homogeneous Time Resolved Fluorescence (HTRF) Assay; type: binding; conditions: fluorescein labeled dimeric SMAC peptide
T2 construct: additions of His-BIR2-3 (125-356, C202A/C213G, XIAP), fluorescein labeled dimeric SMAC peptide
T2 sequence (P98170 125-356 C202A/C213G): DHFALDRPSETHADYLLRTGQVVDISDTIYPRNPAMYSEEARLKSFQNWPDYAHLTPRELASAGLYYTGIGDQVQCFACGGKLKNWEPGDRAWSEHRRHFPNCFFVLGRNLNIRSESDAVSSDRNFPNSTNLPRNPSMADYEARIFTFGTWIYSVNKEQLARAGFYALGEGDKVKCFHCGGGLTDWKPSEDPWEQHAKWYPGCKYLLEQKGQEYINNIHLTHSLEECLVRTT

T1 sequence (P98170 241-356): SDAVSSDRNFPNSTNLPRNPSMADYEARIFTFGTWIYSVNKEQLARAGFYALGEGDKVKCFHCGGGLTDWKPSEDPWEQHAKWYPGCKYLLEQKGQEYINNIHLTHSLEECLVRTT

IC50 (His-BIR3 (241-356, XIAP))	IC50 [1]	Structure (SMILES)
82.4 nM	4.7 nM	CN[C@@H](C)C(=O)N[C@H](C(=O)N[C@H]1C/C=C/COc2ccc(cc2)C[C@@H](C(=O)O)NC(=O)[C@H](Cc2ccc3ccccc3c2)NC(=O)[C@@H]2CN(CCN2C(=O)[C@@H](NC(=O)[C@H](C)NC)C(C)(C)C)C(=O)CNC(=O)CC[C@@H](C(=O)O)NC(=O)[C@H](Cc2ccc3ccccc3c2)NC1=O)C(C)(C)C [Example 78]
373 nM	6.8 nM	CN[C@@H](C)C(=O)N[C@H](C(=O)N[C@H]1C/C=C/CC[C@@H](C(=O)O)NC(=O)[C@H](Cc2ccc3ccccc3c2)NC(=O)[C@@H]2CN(CCNC(=O)CC[C@@H](C(=O)O)NC(=O)[C@H](Cc3ccc4ccccc4c3)NC1=O)CCN2C(=O)[C@@H](NC(=O)[C@H](C)NC)C(C)(C)C)C(C)(C)C [Example 80]
17 nM	3.7 nM	CN[C@@H](C)C(=O)N[C@H](C(=O)N1CC[C@H]2OC/C=C/COc3ccc(cc3)C[C@@H](C(=O)O)NC(=O)[C@H](Cc3ccc4ccccc4c3)NC(=O)[C@@H]3[C@@H](CCN3C(=O)[C@@H](NC(=O)[C@H](C)NC)C(C)(C)C)OCc3cn(nn3)[C@H](C(=O)O)CCNC(=O)[C@H](Cc3ccc4ccccc4c3)NC(=O)[C@H]21)C(C)(C)C [Example 14]
30.8 nM	20.1 nM	CN[C@@H](C)C(=O)N[C@H](C(=O)N1C[C@@H]2C[C@H]1C(=O)N[C@@H](Cc1ccc3ccccc3c1)C(=O)N[C@H](C(=O)O)Cc1ccc(cc1)OC/C=C/CO[C@H]1C[C@@H](C(=O)N[C@@H](Cc3cccc(-c4cccnc4)c3)C(=O)N[C@H](C(=O)NS(=O)(=O)C3CC3)Cc3ccc(cc3)OCc3cn2nn3)N(C(=O)[C@@H](NC(=O)[C@H](C)NC)C(C)(C)C)C1)C(C)(C)C [Example 116]
18.1 nM	11.1 nM	CN[C@@H](C)C(=O)N[C@H](C(=O)N1C[C@@H]2C[C@H]1C(=O)N[C@@H](Cc1ccc3ccccc3c1)C(=O)N[C@H](C(=O)O)Cc1ccc(cc1)OC/C=C/CO[C@H]1C[C@@H](C(=O)N[C@@H](Cc3ccc(-c4cccc(F)c4)cc3)C(=O)N[C@H](C(=O)NS(=O)(=O)C3CC3)Cc3ccc(cc3)OCc3cn2nn3)N(C(=O)[C@@H](NC(=O)[C@H](C)NC)C(C)(C)C)C1)C(C)(C)C [Example 115]
0.9 nM	0.2 nM	CN[C@@H](C)C(=O)N[C@H](C(=O)N1C[C@H]2C/C=C/COc3ccc(cc3)C[C@@H](C(=O)NS(=O)(=O)C3CC3)NC(=O)[C@H](Cc3ccc4ccccc4c3)NC(=O)[C@@H]3C[C@@H](CN3C(=O)[C@@H](NC(=O)[C@H](C)NC)C(C)(C)C)n3cc(nn3)COc3ccc(cc3)C[C@@H](C(=O)O)NC(=O)[C@H](Cc3ccc4ccccc4c3)NC(=O)[C@@H]1C2)C(C)(C)C [Example 25]
9.4 nM	11.3 nM	CN[C@@H](C)C(=O)N[C@H](C(=O)N1C[C@@H]2C[C@H]1C(=O)N[C@@H](Cc1ccc3ccccc3c1)C(=O)N[C@H](C(=O)O)Cc1ccc(cc1)OC/C=C/CO[C@H]1C[C@@H](C(=O)N[C@@H](Cc3cccc(-c4ccc(CO)cc4)c3)C(=O)N[C@H](C(=O)NS(=O)(=O)C3CC3)Cc3ccc(cc3)OCc3cn2nn3)N(C(=O)[C@@H](NC(=O)[C@H](C)NC)C(C)(C)C)C1)C(C)(C)C [Example 117]
1100 nM	2090 nM	CC(C)[C@H](NC(=O)[C@H](C)N(C)C(=O)OC(C)(C)C)C(=O)N[C@H]1C/C=C/CC[C@@H](C(=O)O)NC(=O)[C@H](Cc2ccccc2)NC(=O)[C@@H]2CN(CCNC(=O)CC[C@@H](C(=O)OC(C)(C)C)NC(=O)[C@H](Cc3ccccc3)NC1=O)CCN2C(=O)[C@@H](NC(=O)[C@H](C)N(C)C(=O)OC(C)(C)C)C(C)C [Example 82]
27.9 nM	3.7 nM	CN[C@@H](C)C(=O)N[C@H](C(=O)N1C[C@@H]2C[C@H]1C(=O)N[C@@H](Cc1ccc3ccccc3c1)C(=O)N[C@H](C(=O)O)Cc1ccc(cc1)C(=O)N[C@H]1C[C@@H](C(=O)N[C@@H](Cc3ccc4ccccc4c3)C(=O)N[C@H](C(=O)O)Cc3ccc(cc3)OC/C=C/CO2)N(C(=O)[C@@H](NC(=O)[C@H](C)NC)C(C)(C)C)C1)C1CCCCC1 [Example 71]
131 nM	24.3 nM	CN[C@@H](C)C(=O)N[C@@H](Cc1c[nH]cn1)C(=O)N1C[C@@H]2C[C@H]1C(=O)N[C@@H](Cc1ccc3ccccc3c1)C(=O)N[C@H](C(=O)O)CCC(=O)N[C@H]1C[C@@H](C(=O)N[C@@H](Cc3ccc4ccccc4c3)C(=O)N[C@H](C(=O)O)Cc3ccc(cc3)OC/C=C/CO2)N(C(=O)[C@@H](NC(=O)[C@H](C)NC)C(C)(C)C)C1 [Example 59]
34.2 nM	6.9 nM	CCCCCCCCCCCCS(=O)(=O)NC(=O)[C@@H]1Cc2ccc(cc2)OC/C=C/C[C@H]2C[C@@H](C(=O)N[C@@H](Cc3ccc4ccccc4c3)C(=O)N[C@H](C(=O)O)Cc3ccc(cc3)OCc3cn(nn3)[C@H]3C[C@@H](C(=O)N[C@@H](Cc4ccc5ccccc5c4)C(=O)N1)N(C(=O)[C@@H](NC(=O)[C@H](C)NC)C(C)(C)C)C3)N(C(=O)[C@@H](NC(=O)[C@H](C)NC)C(C)(C)C)C2 [Example 23]
67.2 nM	2.9 nM	CN[C@@H](C)C(=O)N[C@H](C(=O)N1C[C@@H]2C[C@H]1C(=O)N[C@@H](C)C(=O)N[C@H](C(=O)NS(=O)(=O)C1CC1)Cc1ccc(cc1)OCc1cn(nn1)[C@H]1C[C@@H](C(=O)N[C@@H](Cc3ccc4ccccc4c3)C(=O)N[C@H](C(=O)O)Cc3ccc(cc3)OC/C=C/CO2)N(C(=O)[C@@H](NC(=O)[C@H](C)NC)C(C)(C)C)C1)C(C)(C)C [Example 103]
757 nM	138 nM	CN[C@@H](C)C(=O)N[C@@H](CC(=O)O)C(=O)N1C[C@@H]2C[C@H]1C(=O)N[C@@H](Cc1ccc3ccccc3c1)C(=O)N[C@H](C(=O)O)CCC(=O)N[C@H]1C[C@@H](C(=O)N[C@@H](Cc3ccc4ccccc4c3)C(=O)N[C@H](C(=O)O)Cc3ccc(cc3)OC/C=C/CO2)N(C(=O)[C@@H](NC(=O)[C@H](C)NC)C(C)(C)C)C1 [Example 58]
111 nM	3.5 nM	CN[C@@H](C)C(=O)N[C@H](C(=O)N1C[C@@H]2C[C@H]1C(=O)N[C@@H](C)C(=O)N[C@H](C(=O)O)Cc1ccc(cc1)C(=O)N[C@H]1C[C@@H](C(=O)N[C@@H](Cc3ccc4ccccc4c3)C(=O)N[C@H](C(=O)O)Cc3ccc(cc3)OC/C=C/CO2)N(C(=O)[C@@H](NC(=O)[C@H](C)NC)C(C)(C)C)C1)C(C)(C)C [Example 44]
3.9 nM	0.9 nM	CN[C@@H](C)C(=O)N[C@H](C(=O)N1C[C@H]2C/C=C/COc3ccc(cc3)C[C@@H](C(=O)NS(C)(=O)=O)NC(=O)[C@H](Cc3ccc4ccccc4c3)NC(=O)[C@@H]3C[C@@H](CN3C(=O)[C@@H](NC(=O)[C@H](C)NC)C(C)(C)C)n3cc(nn3)COc3ccc(cc3)C[C@@H](C(=O)O)NC(=O)[C@H](Cc3ccc4ccccc4c3)NC(=O)[C@@H]1C2)C(C)(C)C [Example 26]
4.6 nM	4.2 nM	CN[C@@H](C)C(=O)N[C@H](C(=O)N1C[C@@H]2C[C@H]1C(=O)NC(Cc1ccc3ccccc3c1)C(=O)N[C@H](C(=O)NS(=O)(=O)C1CC1)Cc1ccc(cc1)OCCCC[C@H]1C[C@@H](C(=O)N[C@@H](Cc3ccc4ccccc4c3)C(=O)N[C@H](C(=O)NS(=O)(=O)C3CC3)Cc3ccc(cc3)OCc3cn2nn3)N(C(=O)[C@@H](NC(=O)[C@H](C)NC)C(C)(C)C)C1)C(C)(C)C (stereo partly drawn) [Example 100]
79.5 nM	9.2 nM	CN[C@@H](C)C(=O)N[C@@H](Cc1ccccc1)C(=O)N1C[C@@H]2C[C@H]1C(=O)N[C@@H](Cc1ccc3ccccc3c1)C(=O)N[C@H](C(=O)O)CCC(=O)N[C@H]1C[C@@H](C(=O)N[C@@H](Cc3ccc4ccccc4c3)C(=O)N[C@H](C(=O)O)Cc3ccc(cc3)OC/C=C/CO2)N(C(=O)[C@@H](NC(=O)[C@H](C)NC)C(C)(C)C)C1 [Example 60]
24.2 nM	5.3 nM	CN[C@@H](C)C(=O)N[C@H](C(=O)N1C[C@@H]2C[C@H]1C(=O)N[C@@H](Cc1ccc3ccccc3c1)C(=O)N[C@H](C(=O)O)Cc1ccc(cc1)OC/C=C/CO[C@H]1C[C@@H](C(=O)N[C@@H](Cc3c[nH]c4ccccc34)C(=O)N[C@H](C(=O)O)Cc3ccc(cc3)C(=O)N2)N(C(=O)[C@@H](NC(=O)[C@H](C)NC)C(C)(C)C)C1)C(C)(C)C [Example 46]
0.8 nM	2.3 nM	CN[C@@H](C)C(=O)N[C@H](C(=O)N1CC[C@@H]2OC/C=C/COc3ccc(cc3)C[C@@H](C(=O)O)NC(=O)[C@H](Cc3ccc4ccccc4c3)NC(=O)[C@@H]3[C@@H](CCN3C(=O)[C@@H](NC(=O)[C@H](C)NC)C(C)(C)C)OCc3cn(nn3)CCC[C@@H](C(=O)O)NC(=O)[C@H](Cc3ccc4ccccc4c3)NC(=O)[C@H]21)C(C)(C)C [Example 11]

Structure (SMILES)	IC50 (His-BIR3 (241-356, XIAP))	IC50 [1]
CN[C@@H](C)C(=O)N[C@H](C(=O)N1C[C@@H]2C[C@H]1C(=O)N[C@@H](Cc1ccc3ccccc3c1)C(=O)N[C@H](C(=O)O)Cc1ccc(cc1)OCCCCO[C@H]1C[C@@H](C(=O)N[C@@H](Cc3ccc4ccccc4c3)C(=O)N[C@H](C(=O)NS(=O)(=O)c3ccccn3)Cc3ccc(cc3)OCc3cn2nn3)N(C(=O)[C@@H](NC(=O)[C@H](C)NC)C(C)(C)C)C1)C(C)(C)C [Example 125]	3.7 nM	2.7 nM
CNC(C)C(=O)NC(C(=O)N1CC2CC1C(=O)NC(Cc1ccc3ccccc3c1)C(=O)NC(C(=O)O)Cc1ccc(cc1)OCCCCC1CC(C(=O)NC(Cc3ccc4ccccc4c3)C(=O)NC(C(=O)NS(=O)(=O)C(C)C)Cc3ccc(cc3)OCc3cn2nn3)N(C(=O)C(NC(=O)C(C)NC)C(C)(C)C)C1)C(C)(C)C (stereo not drawn) [Example 10]	6.6 nM	3.1 nM
